# Assays:
# [1] = tested on: phosphorylation of FGFR, MAPK and S6 in FGFR fusion stably transfected RK3E cells; experiment: Downstream target expression (immunoblotting); assay type: cell-based, rat; conditions: 1 μM, in the presence of ligands, 1 hour; FIGS. 14A-14H
# Protocol: For immunoblotting, whole cell lysates were collected in RIPA buffer (Thermo Scientific, Waltham, MA, USA) and sample protein concentration was assayed using BCA Protein Assay (Thermo Scientific). Equal amounts of protein (30 μg per lane) were loaded onto on 4-12% Bis-Tris gels (Invitrogen) before an SDS-page was performed. Proteins were transferred to nitrocellulose membranes and probed with antibodies against p-FGFR, total-FGFR2, p-MAPK, total-MAPK, p-S6, total S6, B-actin (Cell Signaling Technology, Danvers, MA, USA), and total-FGFR3 (Santa Cruz, Dallas, TX, USA). The membranes were blocked with Odyssey blocking buffer for 1 h at room temperature and incubated overnight at 4° C. in a primary antibody solution diluted in Odyssey blocking buffer (1:1000). After three washes in 0.1% Tween tris buffered saline (TBST), the membranes were probed with goat anti-mouse or donkey anti-rabbit IR-Dye […] or 800 cw labeled secondary antisera in Odyssey blocking buffer for 1 h at room temperature. Washes were repeated after secondary labeling and the membranes were imaged using a LiCor Odyssey scanner and the Odyssey 3.0 analytical software (LiCor, Lincoln, NE, USA).
# [2] = tested on: RK3E-Transgene KRAS; experiment: Drug response testing (Cell Titer-Glo proliferation), RK3E KRAS; conditions: Rattus norvegicus, 72 h, read-out: Stimulated Proliferation (IC50)
# Protocol: (§1) After 24 hours, cells were serum starved overnight, then re-fed with 0.5% FBS growth media. […] The Microtiter plates were then incubated for 72 hours and assayed for adenosine triphosphate (ATP; a marker of metabolically active cells) content using the Cell Titer-Glo® Luminescent Cell Viability assay (Promega Corp., Madison, WI, USA) following the manufacturer's instructions, with modifications. Briefly, cells were allowed to equilibrate to room temperature, at which time a 1:1 mixture of Cell Titer-Glo® reagent was added. Cells were then placed on an orbital shaker for 2 minutes and incubated for 10 minutes at room temperature to stabilize the luminescent signal. The luminescence was quantified and measurements were conducted using an Envision Multilabel plate reader (Perkin Elmer; Waltham, MA, USA).
# [3] = tested on: RK3E-Transgene FGFR2; experiment: Drug response testing (Cell Titer-Glo proliferation), RK3E FGFR2; conditions: Rattus norvegicus, 72 h, read-out: Stimulated Proliferation (IC50)
# Protocol: (§2) RK3E (rat kidney epithelial cells) cells were purchased from ATCC (Manassas, VA, USA) and cultured in DMEM supplemented with FBS and antibiotics (Invitrogen, Grand Island, NY, USA).
# as §1
# [4] = tested on: RK3E-Transgene FGFR3; experiment: Drug response testing (Cell Titer-Glo proliferation), RK3E FGFR3; conditions: Rattus norvegicus, 72 h, read-out: Stimulated Proliferation (IC50)
# Protocol: as §1
# [5] = tested on: RK3E-Transgene AFF3 (FGFR fusion stably transfected RK3E cells); experiment: Drug response testing (Cell Titer-Glo proliferation), RK3E FGFR2:AFF3; conditions: Rattus norvegicus, 72 h, read-out: Stimulated Proliferation (IC50)
# Protocol: as §2, §1
# [6] = tested on: RK3E-Transgene OFD1 (FGFR fusion stably transfected RK3E cells); experiment: Drug response testing (Cell Titer-Glo proliferation), RK3E FGFR2:OFD1; conditions: Rattus norvegicus, 72 h, read-out: Stimulated Proliferation (IC50)
# Description: (§3) RK3E (rat kidney epithelial cells) cells were purchased from ATCC (Manassas, VA, USA) and cultured in DMEM supplemented with FBS and antibiotics (Invitrogen, Grand Island, NY, USA). FGFR fusion gene constructs were designed and cloned into the pReceiver expression vector (Genecopoeia, Rockville, MD, USA), which contains an HA-tag. Clones were transfected into RK3E cells using the Amaxa Cell Line Nucleofector (Lonza, Basel, Switzerland) following the manufacturer's protocol. The stably transfected cells were selected in complete medium with 800 ug/ml of G418 (Invitrogen).
# as §1
# [7] = tested on: RK3E-Transgene BICC1 (FGFR fusion stably transfected RK3E cells); experiment: Drug response testing (Cell Titer-Glo proliferation), RK3E FGFR2:BICC1; conditions: Rattus norvegicus, 72 h, read-out: Stimulated Proliferation (IC50)
# Protocol: as §2, §1
# [8] = tested on: RK3E-Transgene CASP7 (FGFR fusion stably transfected RK3E cells); experiment: Drug response testing (Cell Titer-Glo proliferation), RK3E FGFR2:CASP7; conditions: Rattus norvegicus, 72 h, read-out: Stimulated Proliferation (IC50)
# Description: as §3, §1
# [9] = tested on: RK3E-Transgene CCDC6 (FGFR fusion stably transfected RK3E cells); experiment: Drug response testing (Cell Titer-Glo proliferation), RK3E FGFR2:CCDC6; conditions: Rattus norvegicus, 72 h, read-out: Stimulated Proliferation (IC50)
# Description: as §3, §1
# [10] = tested on: RK3E-Transgene BAIA2PL1 (FGFR fusion stably transfected RK3E cells); experiment: Drug response testing (Cell Titer-Glo proliferation), RK3E FGFR3:BAIAP2L1; conditions: Rattus norvegicus, 72 h, read-out: Stimulated Proliferation (IC50)
# Protocol: as §1
# [11] = tested on: RK3E-Transgene TACC3-V1 (FGFR fusion stably transfected RK3E cells); experiment: Drug response testing (Cell Titer-Glo proliferation), RK3E FGFR3:TACC3 v1; conditions: Rattus norvegicus, 72 h, read-out: Stimulated Proliferation (IC50)
# Protocol: as §2, §1
# [12] = tested on: RK3E-Transgene TACC3-V3 (FGFR fusion stably transfected RK3E cells); experiment: Drug response testing (Cell Titer-Glo proliferation), RK3E FGFR3:TACC3 v3; conditions: Rattus norvegicus, 72 h, read-out: Stimulated Proliferation (IC50)
# Protocol: as §2, §1
# [13] = tested on: RK3E-Transgene Vector (empty vector control RK3E cells); experiment: Drug response testing (Cell Titer-Glo proliferation), RK3E empty vector control; conditions: Rattus norvegicus, 72 h, read-out: Stimulated Proliferation (IC50)
# Protocol: as §1
# [14] = tested on: FGFR fusion stably transfected RK3E cells; experiment: Drug response testing for FGFR-fusion overexpressing cell lines (overall statement); conditions: for sensitivity of cells harboring the FGFR fusions to the FGFR inhibitor in vitro: empty vector control did not show sensitivity
# Protocol: as §1
# [15] = tested on: advanced solid tumors (patients with FGFR fusion genes / FGFR aberrations); experiment: Phase I First-In-Human study in patients with advanced solid tumor; assay type: in vivo; conditions: FIG. 11
SMILES,phosphorylation of FGFR and downstream targets MAPK and S6 (immunoblot) [1],IC50 [2] [nM],IC50 [3] [nM],IC50 [4] [nM],IC50 [5] [nM],IC50 [6] [nM],IC50 [7] [nM],IC50 [8] [nM],IC50 [9] [nM],IC50 [10] [nM],IC50 [11] [nM],IC50 [12] [nM],IC50 [13] [nM],sensitivity of cells harboring the FGFR fusions to the FGFR inhibitor in vitro [14],"clinical responses (RECIST) ([15]; 9 mg once a day (QD), 12 mg QD and 12 mg 7d on/off, patients with the FGFR fusion genes)","maximal percentage reduction of sum of the diameters of targeted lesions from baseline (RECIST) ([15]; dose level >= 6 mg, daily or intermittent (7 days on - 7 days off), patients whose tumors harbor FGFR gene translocations and mutations)",sensitivity when compared to AZD4547 and NVP-BGJ398 ([14]; nanomolar concentration range)
"CCN1CCN(c2ccc(Nc3cc(N(C)C(=O)Nc4c(Cl)c(OC)cc(OC)c4Cl)ncn3)cc2)CC1 [NVP-BGJ398, 3-(2,6-Dichloro-3,5-dimethoxy-phenyl)-1-{6-[4-(4-ethyl-piperazin-1-yl)-phenylamino]-pyrimid-4-yl}-1-methyl-urea]",inhibited phosphorylation of FGFR and downstream targets i.e. MAPK and S6,2140,> 10000,6340,2.27,16,18.2,242,10.7,5.16,2.59,4.09,> 10000,showed sensitivity,–,–,–
"COc1cc(CCc2cc(NC(=O)c3ccc(N4C[C@@H](C)N[C@@H](C)C4)cc3)n[nH]2)cc(OC)c1 [AZD4547, N-[5-[2-(3,5-Dimethoxyphenyl)ethyl]-2H-pyrazol-3-yl]-4-(3,5-diemthylpiperazin-1-yl)benzamide]",inhibited phosphorylation of FGFR and downstream targets i.e. MAPK and S6,1480,–,5690,–,–,–,–,–,11.5,16.5,8.66,8010,showed sensitivity,–,–,–
"COc1cc(OC)cc(N(CCNC(C)C)c2ccc3ncc(-c4cnn(C)c4)nc3c2)c1 [JNJ-42756493, N-(3,5-dimethoxyphenyl)-N′-(1-methylethyl)-N-[3-(1-methyl-1H-pyrazol-4-yl)quinoxalin-6-yl]ethane-1,2-diamine]",inhibited phosphorylation of FGFR and downstream targets i.e. MAPK and S6,–,–,–,–,–,–,–,–,–,–,–,–,–,Significant clinical responses,appear to be more sensitive,enhanced sensitivity

# From US12037644B2, “Use of FGFR mutant gene panels in identifying cancer patients that will be responsive to treatment with an FGFR inhibitor” (Janssen Pharmaceutica NV, priority 2014, dated 2024)
